From the NIST ThermoML archive (doi:10.1016/j.jct.2010.04.015)
± gives the expanded uncertainty stated by the source.

Details: Liquid, Closed cell (Static) method

Row | SMILES | vapor or sublimation pressure (293.29 K) | vapor or sublimation pressure (303.35 K) | vapor or sublimation pressure (313.24 K) | vapor or sublimation pressure (323.25 K) | vapor or sublimation pressure (332.57 K) | vapor or sublimation pressure (343.18 K) | vapor or sublimation pressure (353.17 K) | vapor or sublimation pressure (363.1 K) | vapor or sublimation pressure (373 K) | vapor or sublimation pressure (283.15 K) | vapor or sublimation pressure (293.14 K) | vapor or sublimation pressure (303.09 K) | vapor or sublimation pressure (313.08 K) | vapor or sublimation pressure (323.28 K) | vapor or sublimation pressure (333.12 K) | vapor or sublimation pressure (343.12 K) | vapor or sublimation pressure (363.17 K) | vapor or sublimation pressure (373.1 K)
1 | CC(C)(N)CO [2-amino-2-methylpropan-1-ol] | 0.0415 ± 0.001 kPa | 0.0975 ± 0.0019 kPa | 0.2191 ± 0.0028 kPa | 0.4556 ± 0.0048 kPa | 0.8745 ± 0.0082 kPa | 1.659 ± 0.011 kPa | 2.933 ± 0.014 kPa | 4.987 ± 0.019 kPa | 8.142 ± 0.025 kPa | – | – | – | – | – | – | – | – | –
2 | CN(C)CCCO [3-dimethylamino-1-propanol] | – | – | – | – | – | – | – | – | – | 0.007 ± 0.0003 kPa | 0.016 ± 0.0006 kPa | 0.0346 ± 0.0009 kPa | 0.0707 ± 0.0014 kPa | 0.1418 ± 0.0021 kPa | 0.2604 ± 0.0031 kPa | 0.4742 ± 0.005 kPa | 1.419 ± 0.01 kPa | 2.315 ± 0.012 kPa
